From PMC9055250, “Design, synthesis, and biological evaluation of new 6,N^2-diaryl-1,3,5-triazine-2,4-diamines as anticancer agents selectively targeting triple negative breast cancer cells” (RSC Advances, 2020)
Read-outs that look alike come from different tables or passages of the source.

Legend:
[1] = tested on: MDA-MB231 breast cancer cells; assay: Time-dependent cytotoxicity (MTT); format: cell-based; details: for inhibition at 0.125 µM / growth inhibition at 125 nM, 12 h: MDA-MB231, 125 nM
Procedure: MDA-MB231 breast cancer cells were grown in DMEM supplemented with 10% FBS and 1% pen-strep antibiotic. The cells were seeded in 96-well plates (20 × 10^3 cells per mL) and the plates were incubated overnight in a humidified air atmosphere at 37 °C in 5% CO2 incubator. The cells were then treated with compounds 16 or 18 in concentrations ranging from 0.2 nM to 125 nM for 12, 24, 48, and 72 h. After specified time for each experiment, MTT (0.5 mg mL^−1) was added to wells, followed by 4 h of incubation. The culture medium was then removed and DMSO (100 μL per well) was added and the absorbance values were measured at 570 nm using the multi-well Tecan NanoQuant, Infinite m200 Pro plate reader. GI50 values were calculated using GraphPad Prism 7 (GraphPad Software, San Diego, USA) by nonlinear regression analysis. All the time-dependent experiments at different times were carried out using the same passage of MDA-MB231 cells. Three independent experiments were carried out and the data were expressed in mean ± standard deviation (SD).

[2] = tested on: MDA-MB231 breast cancer cells; assay: MTT in vitro cytotoxicity assay, MDA-MB231; format: cell-based; details: for viability at 10 µM / GI50: Homo sapiens, MDA-MB-231; for viability at 10 µM: read-out: Cell viability (%) MDA-MB231
Procedure: (§1) The synthesized compounds were tested against three breast tumor cell lines (MDA-MB231, SKBR-3 and MCF-7) and epithelial breast cell line (MCF-10A) by the MTT colorimetric assay.[29,30] All cells were obtained from the American Type Culture Collection. The cancerous cell lines were grown in Dulbecco's modified eagle medium (DMEM) supplemented with 10% fetal bovine serum (FBS) and 1% pen-strep antibiotic. The MCF-10A human epithelial breast cell line was grown in the complete mammary epithelial growth medium containing horse serum 5%, epithelial growth factor 20 ng mL^−1, hydrocortisone […], cholera toxin 100 ng mL^−1, insulin 10 μg mL^−1, and pen-step antibiotic.[31] For the cytotoxic assay, 20 to 75 × 10^3 cells per mL (based on the doubling time for each cell line) were seeded in 96-well plates and the plates were incubated overnight in a humidified air atmosphere at 37 °C in 5% CO2 incubator.
(§2) The cells were then treated with compounds at different concentrations. After 72 h of incubation, the MTT (0.5 mg mL^−1) was added to wells, followed by 4 h of incubation. The culture medium was then removed and DMSO (100 μL per well) was added and the absorbance values were measured at 570 nm using the multi-well Tecan NanoQuant, Infinite m200 Pro plate reader. Growth inhibitory values (GI50) were calculated using GraphPad Prism 7 (GraphPad Software, San Diego, USA) by nonlinear regression analysis. Three independent experiments were carried out and the data was expressed in mean ± standard deviation (SD). The concentration–response curves used for the GI50 calculation are available in ESI. ^†

[3] = tested on: SKBR-3 breast cancer cells; assay: MTT in vitro cytotoxicity assay, SKBR-3; format: cell-based; details: Homo sapiens; for viability at 10 µM: SK-BR-3, 10 μM, 72 h, read-out: Cell viability (%) SKBR-3; for GI50: SK-BR-3, 72 h, read-out: GI50 ± SD SKBR-3
Procedure: as §1, §2

[4] = tested on: MCF-7 breast cancer cells; assay: MTT in vitro cytotoxicity assay, MCF-7; format: cell-based; details: Homo sapiens; for viability at 10 µM: MCF7, 10 μM, 72 h, read-out: Cell viability (%) MCF-7; for GI50: MCF7, 72 h, read-out: GI50 ± SD MCF-7
Procedure: as §1, §2

[5] = tested on: MCF-10A human epithelial breast cell line; assay: MTT in vitro cytotoxicity assay, MCF-10A; format: cell-based; details: 72 h, read-out: GI50 ± SD MCF-10A
Procedure: as §1, §2

MDA-MB231 cells [6] = assay: Acridine orange/propidium iodide double staining, fluorescence microscopy; format: cell-based; details: MDA-MB231, 24 h after treatment; 16 at 125 and 250 nM, 18 at 2.5 and 5 nM
Procedure: Fluorescence microscopy was used to visualize the apoptosis in cancer cells with AO/PI staining.[20] MDA-MB231 cells were grown in 6-well plate (5 × 10^5 cells per well). […] One of the six wells was treated with 1% DMSO and served as a negative control, another well treated with methotrexate served as a positive control. After 24 h of incubation, the wells were washed with phosphate buffered saline (PBS) three times and 100 μL of AO (100 μg mL^−1 in PBS) and 25 μL of PI (100 μg mL^−1 in PBS) in 1 mL of media were added to each well. The plate was then observed under a motorized inverted fluorescent microscope (Eclipse Ti2-E, Nikon). Three independent experiments at each concentration were carried out.

MDA-MB231 cells [7] = assay: Live cell imaging with AO/PI; format: cell-based; details: MDA-MB231, 10 μM, 4 h
Procedure: MDA-MB231 cells (1 × 10^6 cells) were seeded in a Petri dish and incubated overnight in a humidified air atmosphere at 37 °C in 5% CO2 incubator. Then, the Petri dish was washed with PBS three times and 300 μL of AO (100 μg mL^−1 in PBS) and 75 μL of PI (100 μg mL^−1 in PBS) in 3 mL of media were added to the Petri dish. The cells were treated with 10 μM of compound 18 and the dish was then transferred to motorized inverted fluorescent microscope (Eclipse Ti2-E, Nikon). The pictures were taken every 10 minutes for 4 h and intercalated into video (see ESI ^†).

[8] = Homo sapiens, MDA-MB-231, 12 h, read-out: growth inhibition at 125 nM, 12 h
[9] = Homo sapiens, MDA-MB-231, MDA-MB231, 24 h, concentration used in Fig. 3
[10] = Homo sapiens, MDA-MB-231, MDA-MB231, 72 h, read-out: GI50 ± SD, 72 h
[11] = 72 h, MTT, read-out: GI50 ± SD MDA-MB231
[12] = MDA-MB231, calculated from GI50, read-out: Experimental pGI50 (converted)

Q: Which results are given for COc1cc(-c2nc(N)nc(Nc3ccc(C)cc3)n2)cc(OC)c1OC [Compound 18, N ^2-(4-Methylphenyl)-6-(3,4,5-trimethoxyphenyl)-1,3,5-triazine-2,4-diamine]?
A: inhibition at 0.125 µM [1, 8]: 15%; IC20 [1, 9]: 2.5 nM; IC50 [1, 9]: 5 nM; GI50 ([1]; Homo sapiens, MDA-MB-231, MDA-MB231, 24 h, read-out: GI50 ± SD, 24 h): 5 ± 0.1 nM; GI50 ([1]; Homo sapiens, MDA-MB-231, MDA-MB231, 48 h, read-out: GI50 ± SD, 48 h): 4 ± 0.3 nM; GI50 [1, 10]: 1 ± 0.02 nM; growth inhibition at 125 nM, 12 h ([1]; 12 h): no significant inhibition of the cell growth; viability at 10 µM ([2]; 72 h, MTT): 14%; GI50 [2, 11]: 1 ± 0.01 nM; GI50 [2, 12]: 2 nM; fold more active than methotrexate ([2]; MDA-MB231): 10 fold; fold more potent than nilotinib ([2]; MDA-MB231): 40 fold; viability at 10 µM [3]: 37%; GI50 [3]: 210 ± 10 nM; viability at 10 µM [4]: 62%; GI50 [4]: > 20000 nM; GI50 [5]: > 20000 nM; cell morphology, AO/PI double staining (MDA-MB231 cells [6]): signs of apoptosis; morphological changes in live cell imaging (MDA-MB231 cells [7]): inducing apoptosis

Q: Which inhibition at 0.125 µM [1, 8] does the source give for COc1cc(-c2nc(N)nc(Nc3ccc(Cl)cc3)n2)cc(OC)c1OC [Compound 16, N ^2-(4-Chlorophenyl)-6-(3,4,5-trimethoxyphenyl)-1,3,5-triazine-2,4-diamine] here?
A: 17%

Q: And the inhibition at 0.125 µM ([1]; Homo sapiens, MDA-MB-231, 24 h, read-out: growth inhibition at 125 nM, 24 h)?
A: 61%

Q: And the inhibition at 0.125 µM ([1]; Homo sapiens, MDA-MB-231, 48 h, read-out: growth inhibition at 125 nM, 48 h)?
A: 75%

Q: What about the GI50 [1, 10] of the same molecule?
A: 7 ± 0.6 nM

Q: What about the “growth inhibition at 125 nM, 12 h” value ([1]; 12 h) of the same molecule?
A: no significant inhibition of the cell growth

Q: What about the viability at 10 µM ([2]; 72 h, MTT) of the same molecule?
A: 20%

Q: And the GI50 [2, 11]?
A: 7 ± 0.01 nM

Q: What about the GI50 [2, 12] of the same molecule?
A: 7.08 nM

Q: And the viability at 10 µM [3]?
A: 48%

Q: What about the GI50 [3] of the same molecule?
A: 300 ± 40 nM

Q: And the viability at 10 µM [4]?
A: 52%

Q: What about the GI50 [4] of the same molecule?
A: 12500 ± 200 nM

Q: What about the melting point of the same molecule?
A: 209 to 211 °C

Q: And the GI50 [5]?
A: > 20000 nM

Q: What about the “cell morphology, AO/PI double staining” value (MDA-MB231 cells [6]) of the same molecule?
A: signs of apoptosis

Q: What does the source list for COc1cc(-c2nc(N)nc(Nc3ccccc3F)n2)cc(OC)c1OC [Compound 11, N ^2-(2-Fluorophenyl)-6-(3,4,5-trimethoxyphenyl)-1,3,5-triazine-2,4-diamine]?
A: viability at 10 µM ([2]; 72 h, MTT): 34%; GI50 [2, 11]: 7900 ± 500 nM; GI50 [2, 12]: 7940 nM; viability at 10 µM [3]: 73%; GI50 [3]: > 20000 nM; viability at 10 µM [4]: 98%; GI50 [4]: > 20000 nM; melting point: 177 to 179 °C; GI50 [5]: > 20000 nM

Q: For COc1cc(-c2nc(N)nc(Nc3ccccc3)n2)cc(OC)c1OC [Compound 10, N ^2-Phenyl-6-(3,4,5-trimethoxyphenyl)-1,3,5-triazine-2,4-diamine], which viability at 10 µM ([2]; 72 h, MTT) is on record?
A: 14%

Q: What about the GI50 [2, 11] of the same molecule?
A: 9700 ± 600 nM

Q: What about the GI50 [2, 12] of the same molecule?
A: 9770 nM

Q: And the viability at 10 µM [3]?
A: 37%

Q: What about the GI50 [3] of the same molecule?
A: 17200 ± 400 nM

Q: What about the viability at 10 µM [4] of the same molecule?
A: 62%

Q: And the GI50 [4]?
A: > 20000 nM

Q: What about the melting point of the same molecule?
A: 111 to 113 °C

Q: What about the GI50 [5] of the same molecule?
A: > 20000 nM
